Assay results from patent publication US20040005537A1, “Method of identifying toxic agents using differential gene expression” (priority 2000, published 2004).

What was measured:
[1] = test system: rat heart tissue; assay: GENECALLING differential gene expression analysis after dosing of serotonin modulating agents; format: in vivo, Sprague Dawley rats
In short: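 GENECALLING profiling of cDNA from total RNA, keeping gene fragments modulated beyond ±1.5-fold. Tissue collected 24 h after final dosing of serotonin modulating agents; control rats received sterile water or canola oil.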

[2] = grouping used to generate the distinguishing gene profiles; cited from earlier work

SMILES: CC(C)CC(N(C)C)C1(c2ccc(Cl)cc2)CCC1 (stereo not shown) [sibutramine]
- Effects on Transcription Level: Novel gene fragment, 535 bp, 90% SI to mouse slow/cardiac troponin C [M29793] ([1]; CARDIOTOX 71): −1.9 fold
- Effects on Transcription Level: Novel gene fragment, 445 bp, 85% SI to human skeletal muscle alpha 2 actinin [M86406] ([1]; CARDIOTOX 72): −2.2 fold
- Effects on Transcription Level: Novel gene fragment, 246 bp, 89% SI to mouse ponsin-1 [AF078667] ([1]; CARDIOTOX 73): −2.8 fold
- Effects on Transcription Level: Novel gene fragment, 126 bp, 77% SI to human DNA sequence from cosmid V311G7, between markers DXS366 and DXS87 on chromosome X [Z69304] ([1]; CARDIOTOX 74): +2.2 fold
- Effects on Transcription Level: Novel gene fragment, 370 bp ([1]; CARDIOTOX 75): −1.9 fold
- Effects on Transcription Level: Novel gene fragment, 337 bp, 78% SI to novel human protein AHNAK [M80899] ([1]; CARDIOTOX 76): −3.5 fold
- Effects on Transcription Level: Novel gene fragment, 100 bp, 93% SI to human KIAA0750 protein [ABO18293] ([1]; CARDIOTOX 77): −8.4 fold
- Effects on Transcription Level: Novel gene fragment, 44 bp ([1]; CARDIOTOX 78): −2.9 fold
- Effects on Transcription Level: Novel gene fragment, 698 bp, 93% SI to mouse plenty-of-prolines-101 [AF062655] ([1]; CARDIOTOX 79): −2.3 fold
- Effects on Transcription Level: Novel gene fragment, 660 bp, 84% SI to mouse membrane protein TMS-2 [AF181685] ([1]; CARDIOTOX 80): −1.9 fold
- Effects on Transcription Level: Novel gene fragment, 115 bp ([1]; CARDIOTOX 81): −13.1 fold
- Effects on Transcription Level: Novel gene fragment, 294 bp, 95% SI to mouse Ndr1 related protein Ndr2 [AB033921] ([1]; CARDIOTOX 82): −3.3 fold
- Effects on Transcription Level: Novel gene fragment, 198 bp ([1]; CARDIOTOX 83): +3.1 fold
- Effects on Transcription Level: Novel gene fragment, 730 bp, 86% SI to mouse E800 [Y10968] ([1]; CARDIOTOX 84): −2.1 fold
- Effects on Transcription Level: Novel gene fragment, 294 bp, 98% SI to cysteine conjugate beta-lyase [S61960] ([1]; CARDIOTOX 85): −2.1 fold
- Effects on Transcription Level: Aconitase ([1]; CARDIOTOX 86, GenBank A1243266): −2.9 fold
- Effects on Transcription Level: Ribosomal protein L7 ([1]; CARDIOTOX 87, GenBank M17422): +3.7 fold
- Effects on Transcription Level: Ribosomal protein L9 ([1]; CARDIOTOX 88, GenBank X51706): +8.0 fold
- Effects on Transcription Level: Ribosomal protein L12 ([1]; CARDIOTOX 89, GenBank X53504): −1.5 fold
- Effects on Transcription Level: 18S, 5.8S, and 28S ribosomal RNA's ([1]; CARDIOTOX 90, GenBank V01270): +6 fold
- Effects on Transcription Level: Pyruvate dehydrogenase kinase 2 (PDK2) ([1]; CARDIOTOX 91, GenBank U10357): −9.5 fold
- Effects on Transcription Level: D-Binding Protein (DBP) ([1]; CARDIOTOX 92, GenBank J03179): −1.7 fold
- Effects on Transcription Level: Lipoprotein lipase ([1]; CARDIOTOX 93, GenBank L03294): −2.5 fold
- Effects on Transcription Level: Non-neuronal enolase ([1]; CARDIOTOX 94, GenBank X02610): +3.1 fold
- Effects on Transcription Level: Glycogen phosphorylase (muscle isozyme) ([1]; CARDIOTOX 95, GenBank L10669): −2.0 fold
- Effects on Transcription Level: Cytochrome c oxidase subunit IV ([1]; CARDIOTOX 96, GenBank X14209): +8.0 fold
- Effects on Transcription Level: Alpha-globin ([1]; CARDIOTOX 97, GenBank M17083): +7.0 fold
- Effects on Transcription Level: Beta-globin ([1]; CARDIOTOX 98, GenBank X06701): +5.0 fold
- Effects on Transcription Level: Myoglobin ([1]; CARDIOTOX 99, GenBank AF197916): +7.0 fold
- Effects on Transcription Level: Titin ([1]; CARDIOTOX 100, GenBank L38717): +1.5 fold
- Effects on Transcription Level: Skeletal muscle actin ([1]; CARDIOTOX 101, GenBank V01218): −3.8 fold
- Effects on Transcription Level: Myosin light chain 2 (MLC2) ([1]; CARDIOTOX 102, GenBank M11851): +1.9 fold
- Effects on Transcription Level: Alpha cardiac myosin heavy chain ([1]; CARDIOTOX 103, GenBank X15938): −3.2 fold
- Effects on Transcription Level: Troponin I ([1]; CARDIOTOX 104, GenBank U77354): +1.6 fold
- Effects on Transcription Level: Cardiac calsequestrin ([1]; CARDIOTOX 105, GenBank AF001334): −2.5 fold
- Effects on Transcription Level: Sulfated glycoprotein 2 ([1]; CARDIOTOX 106, GenBank M16975): −1.5 fold
- Effects on Transcription Level: Aquaporin 7 ([1]; CARDIOTOX 107, GenBank AB000507): +1.6 fold
- Effects on Transcription Level: Carnitine/acylcarnitine carrier protein ([1]; CARDIOTOX 108, GenBank X97831): −1.9 fold
- Effects on Transcription Level: Glu-Pro Dipeptide Repeat ([1]; CARDIOTOX 109, GenBank U40628): −5.5 fold
- Effects on Transcription Level: Cystatin beta ([1]; CARDIOTOX 110, GenBank X54737): +3.1 fold
- Effects on Transcription Level: Novel gene fragment, 593 bp, 90% SI to human calcineurin B-like protein [Z08983] ([1]; CARDIOTOX 111): +2.1 fold
- Effects on Transcription Level: Novel gene fragment, 179 bp, 88% SI to human titin [X90568] ([1]; CARDIOTOX 112): −2.0 fold
- Effects on Transcription Level: Novel gene fragment, 700 bp, 91% SI to mouse periplakin (PPL) [AF116523] ([1]; CARDIOTOX 113): +2.2 fold
- Effects on Transcription Level: Long chain acyl-CoA dehydrogenase (LCAD) ([1]; CARDIOTOX 114, GenBank J05029): +1.8 fold
- Effects on Transcription Level: Sulfated glycoprotein 1 (SGP-1) ([1]; CARDIOTOX 115, GenBank M19936): −2.3 fold
- Effects on Transcription Level: Catalase ([1]; CARDIOTOX 116, GenBank M11670): +1.8 fold
- Effects on Transcription Level: Alpha-fodrin (A2A) (Nonerythroid spectrin alpha subunit) ([1]; CARDIOTOX 117, GenBank AF084186): +5.0 fold
- Effects on Transcription Level: Cardiac specific sodium channel alpha-subunit ([1]; CARDIOTOX 118, GenBank M27902): −2.9 fold
- Effects on Transcription Level: Glu-Pro Dipeptide Repeat ([1]; CARDIOTOX 119, GenBank U40628): +6.0 fold
- Effects on Transcription Level: Novel gene fragment, 200 bp, 64% SI to human KIAA0733 protein [AB018316] ([1]; CARDIOTOX 120): −1.5 fold
- Effects on Transcription Level: RNA polymerase II transcription factor SIII (p18 subunit) ([1]; CARDIOTOX 121, GenBank L42855): +2.0 fold
- Effects on Transcription Level: Protein-tyrosine phosphalase (LRP) ([1]; CARDIOTOX 122, GenBank L01702): +1.5 fold
- Effects on Transcription Level: Skeletal muscle selenoprotein W (SelW) ([1]; CARDIOTOX 123, GenBank U25264): −1.5 fold
- Effects on Transcription Level: Sarcoplasmic reticulum 2+-Ca-ATPase ([1]; CARDIOTOX 124, GenBank X15635): −2.0 fold
- Effects on Transcription Level: Ribosomal protein S7 ([1]; CARDIOTOX 125, GenBank X53377): +1.8 fold
- Effects on Transcription Level: Ribophorin I ([1]; CARDIOTOX 126, GenBank X05300): +1.6 fold
- Effects on Transcription Level: Beta cardiac myosin heavy chain ([1]; CARDIOTOX 127, GenBank X15939): −1.7 fold
- Effects on Transcription Level: ADP-ribosylation factor 1 ([1]; CARDIOTOX 128, GenBank L12380): −2.0 fold
- Effects on Transcription Level: Laminin receptor ([1]; CARDIOTOX 129, GenBank U04942): +4.6 fold
- Effects on Transcription Level: Novel gene fragment, 206 bp, 89% SI to human seryl-tRNA synthetase [X91257] ([1]; CARDIOTOX 130): +1.4 fold
- Effects on Transcription Level: Annexin VI ([1]; CARDIOTOX 131, GenBank X86086): +1.4 fold
- Effects on Transcription Level: Novel gene fragment, 325 bp, 90% SI to mouse N-RAP [U76618] ([1]; CARDIOTOX 132): −1.1 fold
- Effects on Transcription Level: Novel gene fragment, 61 bp (CARDIOTOX 134) ([1]; LD10 dose for three days): +1.0 fold
- Effects on Transcription Level: Novel gene fragment, 337 bp (CARDIOTOX 133) ([1]; LD10 dose for three days): −1.1 fold
- Effects on Transcription Level: Novel gene fragment, 378 bp, 88% SI to human coatomer protein (COPA) [U24105] (CARDIOTOX 138) ([1]; LD10 dose for three days): −2.3 fold
- Effects on Transcription Level: Long chain 3-ketoacyl-CoA thiolase (CARDIOTOX 136) ([1]; LD10 dose for three days, GenBank D16479): −2.0 fold
- Effects on Transcription Level: TATA-binding protein interacting protein 120 (TIP120) (CARDIOTOX 135) ([1]; LD10 dose for three days, GenBank D87671): +1.3 fold
- Effects on Transcription Level: Serine protease (CARDIOTOX 139) ([1]; LD10 dose for three days, GenBank D88250): +1.3 fold
- Effects on Transcription Level: Thymosin beta-4 (CARDIOTOX 137) ([1]; LD10 dose for three days, GenBank M34043): +1.5 fold
- classification as cardiotoxic or noncardiotoxic serotonin modulating agent [2]: noncardiotoxic
